Columns and labels:
[1] = test system: CD3^+ T cells; experiment: qPCR analysis of in vitro activated CD3+ cells; type: cell-based
Protocol: (FIG. 4A) Scheme of CD3+ T-cell activation and analysis for various timepoints in order to investigate mitophagy induction in vitro. (FIG. 4B) Analysis of mitochondrial membrane potential within CD8+ T cells, with TMRM^lo representing cells with low mitochondrial membrane potential. Analysis was performed six hours after stimulation with aCD/aCD28 stimulation beads at the presence of the indicated treatments. N=4 per group, *p < 0.05 by Mann Whitney U test. One of two independent experiments are shown. (FIG. 4C) Representative flow histogram and quantification of lysosome formation in CD8+ cells six hours after in vitro stimulation. MFI shown relative to DMSO controls, n=4. Data are normalised mean ± SD, statistical analysis by two-sided t-test. One out of two independent experiments are shown. (FIG. 4D) Mitotracker Red staining of in vitro stimulated CD8+ cells after 24 hours of Urolithin A (UA25 n=6; UA50 n=6) or vehicle control treatment (DMSO: n=4). […] (FIG. 4H) CD8+ cells from Pink1^-/- mice display deficient mitophagy upon UA treatment in vitro: Lysosome formation in CD8+ of Pink1^-/- mice as assessed by Lysotracker staining 6h post stimulation at the presence of UA or DMSO (n=4). […] Quantification of TCF1^hi cells among CD8. (FIG. 4N) Quantification of PD1^hi cells among CD8. (FIG. 4O) Quantification of and Tim3^hi cells among CD8. […]

[2] = test system: C.elegans; details: in vivo; cited from earlier work
[3] = test system: Th1/Th17 cell infiltration; details: in vivo; cited from earlier work

## O=c1oc2cc(O)ccc2c2ccc(O)cc12 [Urolithin A]
[1]; 24 h after activation
  autophagy genes and Pink1 (qPCR): significant upregulation
[1]; 24 h after stimulation
  transcription of Wnt target genes (qPCR): increased transcription
[2]
  lifespan: prolonged lifespan
  mitochondrial content: higher mitochondrial content
[3]
  Th1/Th17 cell infiltration: blocking Th1/Th17 cell infiltration

— patent publication US20230277669A1, “USES OF UROLITHINS” (Amazentis SA, priority 2022, published 2023)
